From patent US20230276703A1, “ORGANIC SEMICONDUCTOR MATERIAL” (The University of Tokyo, priority 2020, published 2023)

Assay: Solvent solubility evaluation in o-dichlorobenzene
Type: physicochemical
Settings: heated at 100° C., visual confirmation of dissolution, (w/Vd)×100
Method: Approximately 1 mg of each compound (accurate weight was w (mg)) was weighed in a sample tube, and 20 μL of o-dichlorobenzene was added thereto by using a micropipette. The sample tube was capped and heated at 100° C. by a hot plate. Whether or not the compound was dissolved was visually confirmed. When the compound was not dissolved, the operation of adding o-dichlorobenzene in an amount of 20 μL per addition until the compound was dissolved and heating to 100° C. was repeated.
The solubility (wt. %) of the compound was calculated based on the following formula. Note that V in the formula is a volume (μL) of the o-dichlorobenzene added to dissolve the compound, and d is a density (g/cm^3) of the o-dichlorobenzene.
Solubility (%)=(w/Vd)×100

CCCCCCCCN1C(=O)c2cnc3c4ccc5c6c(cnc(c7ccc1c2c73)c64)C(=O)N5CCCCCCCC [Compound (II)]
Solubility (%): 0.58%

CCCCCCCCN1C(=S)c2cnc3c4ccc5c6c(cnc(c7ccc1c2c73)c64)C(=S)N5CCCCCCCC [Compound (III)]
Solubility (%): 0.49%

O=C1c2ccc3c4ncc5c6c(ccc(c7ncc(c2c37)C(=O)N1CCc1ccccc1)c64)C(=O)N(CCc1ccccc1)C5=O [Compound (IX), reference compound]
Solubility (%): <0.0007%

CCCN1C(=O)c2cnc3c4c(C#N)cc5c6c(cnc(c7c(C#N)cc1c2c37)c64)C(=O)N5CCC [Compound (VI)]
Solubility (%): 0.027%

CCCCCCN1C(=O)c2cnc3c4c(C#N)cc5c6c(cnc(c7c(C#N)cc1c2c37)c64)C(=O)N5CCCCCC [Compound (VIII)]
Solubility (%): 0.52%

CCCCCCCCN1C(=O)c2ccc3c4ncc5c6c(ccc(c7ncc(c2c37)C1=O)c64)C(=O)N(CCCCCCCC)C5=O [Compound (X), reference compound]
Solubility (%): 0.019%
